Laboratory results published in US20250230138A1, “COMPOUNDS HAVING A T-STRUCTURE FORMED BY AT LEAST FOUR CYCLES FOR USE IN THE TREATMENT OF CANCER AND OTHER INDICATIONS” (TheRas, Inc., priority 2022, published 2025).
Read-outs that look alike come from different tables or passages of the source.

Columns and labels:
[1] = biological target: Cys242 in human PIK3CA (157-299) (Homo sapiens (Human), UniProt P42336); assay: Covalent modification assay using MALDI-TOF MS; type: biochemical; details: 4 h reaction time point; 3.33 μM protein target, 1:7.5 protein to compound ratio (compounds 1-852)
Sequence of Cys242 in human PIK3CA (157-299) (P42336 157-299): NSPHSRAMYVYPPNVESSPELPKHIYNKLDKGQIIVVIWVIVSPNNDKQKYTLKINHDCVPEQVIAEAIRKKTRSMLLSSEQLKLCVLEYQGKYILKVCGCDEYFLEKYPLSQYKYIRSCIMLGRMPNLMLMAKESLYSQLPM
How it was run: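 PIK3CA (157-299) at 3.33 μM or 1 μM in 20 mM HEPES, 150 mM NaCl, 2 mM MgCl2, pH 7.3 was incubated with compound (from 10 mM DMSO stocks) in the dark at room temperature for 15 min, 30 min, 2 h or 4 h. Linear-mode MALDI-TOF peak heights gave percent modification.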

[2] = test system: pAKT in BT474 cells; assay: Cell-based pAKT HTRF assay in BT474 cells; details: BT474 cells, 4 hr incubation, Compounds 10-999, read-out: pAKT inhibition IC50 in BT474 cells
How it was run: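 Treatment lasts 4 hr in DMEM/10% FBS at 0.25% DMSO over nine 3-fold dilutions from 3 μM. The lysate is then probed by HTRF.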

| Compound | % of modification [1] | IC50 [2] [nM] | IC50 ([2]; Homo sapiens, BT-474) [nM] |
| --- | --- | --- | --- |
| CC#CC(=O)N1CCn2nc(-c3nc(-c4ccc5c(c4)CCNC5=O)c4ccsc4c3-c3ccc(F)cc3OC(C)C)cc2C1 [Compound 268] | A (percent of modification of PIK3CA protein ≥75%) | 100 to 1000 | – |
| C=CC(=O)N1CCn2nc(-c3nc(-c4cccc(C#N)c4)c4ccsc4c3-c3ccc(F)cc3OCCOC)cc2C1 [Compound 270] | A (percent of modification of PIK3CA protein ≥75%) | < 100 | – |
| C=CC(=O)N1CCn2nc(-c3nc(-c4ccc5c(c4)CCN(C)C5)c4ccsc4c3-c3ccc(F)cc3OC(C)C)nc2C1 [Compound 271] | A (percent of modification of PIK3CA protein ≥75%) | < 100 | – |
| C=CC(=O)N1CCn2cc(-c3nc(-c4ccc(=O)n(C)c4)c4ccsc4c3-c3ccc(F)cc3OC(C)C)nc2C1 [Compound 272] | A (percent of modification of PIK3CA protein ≥75%) | < 100 | – |
| C=CC(=O)N1CCn2nc(-c3nc(-c4ccc(=O)n(C)c4)cnc3-c3ccc(F)cc3OC(C)C)cc2C1 [Compound 273, 5-[5-(4-fluoro-2-isopropoxy-phenyl)-6-(5-prop-2-enoyl-6,7-dihydro-4H-pyrazolo[1,5-a]pyrazin-2-yl)pyrazin-2-yl]-1-methyl-pyridin-2-one] | C (25%≤percent of modification <50%) | – | > 3000 |
| C=CC(=O)N1CCc2nc(-c3nc(-c4ccc5c(c4)CCNC5)c4c(F)csc4c3-c3ccc(F)cc3OC)sc2C1 [Compound 274, 1-[2-[3-fluoro-7-(4-fluoro-2-methoxy-phenyl)-4-(1,2,3,4-tetrahydroisoquinolin-6-yl)thieno[3,2-c]pyridin-6-yl]-6,7-dihydro-4H-thiazolo[5,4-c]pyridin-5-yl]prop-2-en-1-one] | A (percent of modification of PIK3CA protein ≥75%) | – | 100 to 1000 |
| C=CC(=O)N1CCn2nc(-c3nc(-c4cnn(C)c4)c4ccsc4c3-c3ccc(F)cc3OCC)cc2C1 [Compound 275] | A (percent of modification of PIK3CA protein ≥75%) | < 100 | – |
| C=C(F)C(=O)N1CCn2nc(-c3nc(-c4ccc(=O)n(C)c4)c4ccsc4c3-c3ccc(F)cc3OC(C)C)cc2C1 [Compound 276] | A (percent of modification of PIK3CA protein ≥75%) | 100 to 1000 | – |
| COC/C=C/C(=O)N1CCn2nc(-c3nc(-c4ccc5c(c4)CCNC5=O)c4ccsc4c3-c3ccc(F)cc3OC(C)C)cc2C1 [Compound 277] | A (percent of modification of PIK3CA protein ≥75%) | 100 to 1000 | – |
| C=C(F)C(=O)N1CCn2nc(-c3nc(-c4ccc(=O)n(C)c4)c4ccsc4c3-c3ccc(F)cc3OCCOC)cc2C1 [Compound 278] | B (50%<percent of modification <75%) | 100 to 1000 | – |
| C=CC(=O)N1CCn2nc(-c3nc(-c4cnn(C)c4)ccc3-c3ccc(F)cc3OC(C)C)cc2C1 [Compound 279, 1-[2-[3-(4-fluoro-2-isopropoxy-phenyl)-6-(1-methylpyrazol-4-yl)-2-pyridyl]-6,7-dihydro-4H-pyrazolo[1,5-a]pyrazin-5-yl]prop-2-en-1-one] | A (percent of modification of PIK3CA protein ≥75%) | – | 100 to 1000 |
| C=CC(=O)N1CCn2nc(-c3nc(-c4cnn([C@@H](CO)CF)c4)c4ccsc4c3-c3ccc(F)cc3OCCOC)cc2C1 [Compound 280] | A (percent of modification of PIK3CA protein ≥75%) | < 100 | – |
| C=CC(=O)N1CCn2nc(-c3cc(-c4cnn(C)c4)cnc3-c3ccc(F)cc3OCCOC)cc2C1 [Compound 281, 1-[2-[2-[4-fluoro-2-(2-methoxyethoxy)phenyl]-5-(1-methylpyrazol-4-yl)-3-pyridyl]-6,7-dihydro-4H-pyrazolo[1,5-a]pyrazin-5-yl]prop-2-en-1-one] | C (25%≤percent of modification <50%) | – | > 3000 |
| C=CC(=O)N1CC(n2cc(-c3nc(-c4ccc5c(c4)CNC5=O)c4ccsc4c3-c3ccc(F)cc3OC)cn2)C1 [Compound 282] | A (percent of modification of PIK3CA protein ≥75%) | < 100 | – |
| C=CC(=O)N1CCn2nc(-c3nc(-c4cnc5c(c4)CN(C)CC5)c4ccsc4c3-c3ccc(F)cc3OC(C)C)cc2C1 [Compound 283] | A (percent of modification of PIK3CA protein ≥75%) | < 100 | – |
| C=CC(=O)N1CCn2nc(-c3nc(-c4cnn(C)c4)c4ccsc4c3-c3ccc(Cl)cc3F)cc2C1 [Compound 284] | A (percent of modification of PIK3CA protein ≥75%) | 100 to 1000 | – |
| CC(C)Oc1cc(F)ccc1-c1c(-c2cc3n(n2)CCN(C(=O)/C=C/CN(C)C)C3)nc(-c2ccc3c(c2)CCNC3=O)c2ccsc12 [Compound 285] | B (50%<percent of modification <75%) | 100 to 1000 | – |
| C=CC(=O)N1CCn2nc(-c3nc(N4CCS(=O)(=O)CC4)c4ccsc4c3-c3ccc(F)cc3OC(C)C)cc2C1 [Compound 286] | A (percent of modification of PIK3CA protein ≥75%) | > 3000 | – |
| C=CC(=O)N1CCn2nc(-c3nc(-c4ccc5c(c4)CNC5=O)c4ccsc4c3-c3ccc(F)cc3OC(C)C)cc2C1 [Compound 287] | A (percent of modification of PIK3CA protein ≥75%) | < 100 | – |

| Compound | % of modification [1] | IC50 [2] [nM] | IC50 ([2]; Homo sapiens, BT-474) [nM] |
| --- | --- | --- | --- |
| C=CC(=O)N1CCn2nc(-c3nc(-c4cnc5c(c4)CN(C)CC5)c4ccsc4c3-c3ccc(F)cc3OC)cc2C1 [Compound 288] | A (percent of modification of PIK3CA protein ≥75%) | < 100 | – |
| C=CC(=O)N1CCn2nc(-c3nc(-c4cnn(C)c4)c4ccsc4c3-c3c(F)cc(F)cc3OC(C)C)cc2C1 [Compound 289] | A (percent of modification of PIK3CA protein ≥75%) | < 100 | – |
| C=CC(=O)N1CCn2nc(-c3nc(-c4cnn(C)c4)c4ccsc4c3-c3ccc(F)cc3Cl)cc2C1 [Compound 291] | A (percent of modification of PIK3CA protein ≥75%) | < 100 | – |
| C=CC(=O)N1CCn2nc(-c3nc(-c4cnn(C)c4)c4ccsc4c3-c3c(F)cc(F)cc3F)cc2C1 [Compound 292] | A (percent of modification of PIK3CA protein ≥75%) | 100 to 1000 | – |
| C=C(F)C(=O)N1CCn2nc(-c3nc(-c4ccc5c(c4)CCN(C)C5)c4ccsc4c3-c3ccc(F)cc3OC(C)C)cc2C1 [Compound 293] | A (percent of modification of PIK3CA protein ≥75%) | < 100 | – |
| C=C(F)C(=O)N1CCn2nc(-c3nc(-c4ccc5c(c4)CCN(C(C)C)C5)c4ccsc4c3-c3ccc(F)cc3OC(C)C)cc2C1 [Compound 294] | A (percent of modification of PIK3CA protein ≥75%) | < 100 | – |
| C=C(F)C(=O)N1CCn2nc(-c3nc(-c4cnn(C)c4)c4ccsc4c3-c3ccc(F)cc3OC(C)C)cc2C1 [Compound 295] | B (50%<percent of modification <75%) | 100 to 1000 | – |
| C=CC(=O)N1CC(n2cc(-c3nc(C4CCN(S(C)(=O)=O)CC4)c4ccsc4c3-c3ccc(F)cc3OC)cn2)C1 [Compound 296] | B (50%<percent of modification <75%) | 1000 to 3000 | – |
| C=CC(=O)N1CC(n2cc(-c3nc(C4CCN(C(C)=O)CC4)c4ccsc4c3-c3ccc(F)cc3OC)cn2)C1 [Compound 297] | B (50%<percent of modification <75%) | 1000 to 3000 | – |
| C=CC(=O)N1CC(n2cc(-c3nc(C4=CCN(C(C)=O)CC4)c4ccsc4c3-c3ccc(F)cc3OC)cn2)C1 [Compound 298] | A (percent of modification of PIK3CA protein ≥75%) | 100 to 1000 | – |
| C=CC(=O)N1CC(n2cc(-c3nc(C4=CCN(S(C)(=O)=O)CC4)c4ccsc4c3-c3ccc(F)cc3OC)cn2)C1 [Compound 299] | A (percent of modification of PIK3CA protein ≥75%) | 100 to 1000 | – |
| C=CC(=O)N1CCn2nc(-c3nc(-c4ccc5c(c4)CCNC5=O)c4ccsc4c3-c3ccc(F)cc3OC3CC3)cc2C1 [Compound 302] | A (percent of modification of PIK3CA protein ≥75%) | < 100 | – |
| C=C(F)C(=O)N1CCn2nc(-c3nc(-c4cncc(C#N)c4)c4ccsc4c3-c3ccc(F)cc3OC(C)C)cc2C1 [Compound 303] | A (percent of modification of PIK3CA protein ≥75%) | 100 to 1000 | – |
| C=C(F)C(=O)N1CCn2nc(-c3nc(-c4ccc5c(c4)CCNC5=O)c4ccsc4c3-c3ccc(F)cc3OCC)cc2C1 [Compound 304] | B (50%<percent of modification <75%) | 100 to 1000 | – |
| C=C(F)C(=O)N1CCn2nc(-c3nc(-c4ccc5c(c4)CCN(C)C5)c4ccsc4c3-c3ccc(F)cc3OCC)cc2C1 [Compound 305] | B (50%<percent of modification <75%) | 100 to 1000 | – |
| C=C(F)C(=O)N1CCn2nc(-c3nc(-c4cnc5c(c4)CN(C)CC5)c4ccsc4c3-c3ccc(F)cc3OC(C)C)cc2C1 [Compound 306] | B (50%<percent of modification <75%) | < 100 | – |
| C=C(F)C(=O)N1CCn2nc(-c3nc(-c4ccc(=O)[nH]c4)c4ccsc4c3-c3ccc(F)cc3OC(C)C)cc2C1 [Compound 307] | A (percent of modification of PIK3CA protein ≥75%) | 100 to 1000 | – |
| C=C(F)C(=O)N1CCn2nc(-c3nc(-c4ccc5c(c4)[C@@H](O)CC5)c4ccsc4c3-c3ccc(F)cc3OC(C)C)cc2C1 [Compound 308] | A (percent of modification of PIK3CA protein ≥75%) | 100 to 1000 | – |
